Where “and” joins values, the source holds several entries; their conditions need not be identical. Equal entries are not always repeated.
Columns and labels:
[1] = healthy volunteer population (Evans 2013); cited from earlier work
[2] = tested on: patients with pemphigus (Safety Population); experiment: Safety (treatment-emergent adverse events), Part A
Method: (§1) Specific assessments to evaluate treatment safety included the following: (1) the frequency and type of AEs; (2) clinical laboratory testing; (3) SNAQ appetite questionnaire; and (4) vital signs. Typically, patients remained under observation in the clinic for 2 hours after administration of the first PRN1008 dose and until the PK sample was drawn.
(§2) The primary safety outcome measures were incidence of treatment-emergent AEs (TEAEs), including clinically significant changes in physical examination, laboratory tests, and vital signs.
(§3) Investigators were instructed to report in detail all AEs encountered during the clinical study in the source documents, from the date of participant consent throughout the follow-up visit. Investigators were also instructed to report pre-existing conditions that worsen during a study were instructed as AEs, with the exception of the disease under study as it was expected that there may be variation in pemphigus disease activity intended to be captured in other measurements.
(§4) Investigators were instructed to grade AEs based on the NCI CTCAE, Version 4.0 or higher.
(§5) Investigators were instructed to use their knowledge of the study participant, the circumstances surrounding the event, and an evaluation of any potential alternative causes to determine whether or not an AE is considered to be related to the study drug, indicating “yes” or “no” accordingly.

[3] = tested on: rats with collagen-induced arthritis; settings: rats with collagen-induced arthritis (Hill R et al., 2015); cited from earlier work
[4] = Plasma concentration of PRN1008, Part A; type: in vivo; settings: human, oral, read-out: plasma levels at 12 hours post-dose (trough point)
[5] = tested on: patients with pemphigus (PV and PF); experiment: Interim data as of Jan. 18, 2018 in patients with pemphigus (PV and PF); type: in vivo, human
Method: As of Jan. 18, 2018, PRN1008 had been administered to 21 patients with pemphigus (pemphigus vulgaris (PV) and pemphigus foliaceus (PF)), 18 of whom had 4 or more weeks of treatment with […]1008 was well-tolerated in this study. […] Three patients achieved CDA on no CS. Two patients required high-dose CS temporarily during PRN1008 treatment due to worsening of disease activity. Four patients achieved complete remission (CR) on 1 to 20 mg/day of CS, three achieved CR at Week 13 (25%), and one achieved CR at Week 21.

[6] = tested on: canines with naturally occurring PF; settings: canines with naturally occurring PF (Murrell DF, 2019); cited from earlier work
[7] = tested on: patients with newly diagnosed or relapsing pemphigus; experiment: Phase 2 study Part A (400 mg BID up to 600 mg BID, 12-week treatment): clinical activity; type: in vivo, human; settings: for patients who achieved complete remission (CR): n = 24
patients with pemphigus = experiment: Safety (adverse events), Part B
Method: as §1, §2, §3, §4, §5

[8] = tested on: fetal development, male fertility; experiment: Preclinical reproductive toxicity studies; type: in vivo
[9] = tested on: patients with newly diagnosed or relapsing pemphigus; experiment: Phase 2 study Part B (400 mg QD up to 600 mg BID, 24-week treatment): clinical activity; settings: for Median PDAI: 12 at day 1
Method: Generally, clinical response is shown by some improvement seen in first 2 weeks with CDA achieved by the Week 5 visit. […] Typically, clinical response and tolerability were assessed at each visit.
PDAI and ABSIS assessments were employed to monitor pemphigus disease activity. […] Photography was used to document skin disease changes where appropriate.
Part B was a multicenter, open-label, single-arm Phase 2 study (NCT02704429) designed to further evaluate the efficacy and safety of PRN1008 in pemphigus patients. Patients received an initial dose of 400 mg PRN1008 once a day (QD) with possible dose adjustment up to 600 mg BID at investigator discretion. Treatment duration was 24 weeks with an additional 4 weeks of follow-up off treatment.

[10] = Relative bioavailability study, tablet vs liquid formulation
[11] = tested on: anti-dsg 1 and anti-dsg 3 autoantibody levels; experiment: Anti-dsg autoantibody levels by ELISA, Part A; settings: including patients with high autoantibody levels at baseline
Excerpt: PK outcome measures investigated included plasma concentrations of PRN1008 at approximately the time of maximum concentration on Day 1 and at various subsequent times during outpatient dosing.

healthy volunteers = settings: Phase 1, healthy volunteers (Smith PF 2017); cited from earlier work

## C=CC(=O)Nc1cccc(Nc2nc(Nc3ccc(OCCOC)cc3)ncc2F)c1 [CC-292]
[1]
  tolerability: well tolerated

## CC(C)(C=C(C#N)C(=O)N1CCC[C@@H](n2nc(-c3ccc(Oc4ccccc4)cc3F)c3c(N)ncnc32)C1)N1CCN(C2COC2)CC1 [PRN1008, (R)-2-[3-[4-amino-3-(2-fluoro-4-phenoxy-phenyl)pyrazolo[3,4-d]pyrimidin-1-yl]piperidine-1-carbonyl]-4-methyl-4-[4-(oxetan-3-yl)piperazin-1-yl]pent-2-enenitrile]
[2]; Part A
  AEs commonly associated with marketed BTKi (major hemorrhage, atrial fibrillation, thrombocytopenia/neutropenia): no cases
  AEs related to the study drug: headache: 11%
  AEs related to the study drug: nausea: 15%
  AEs related to the study drug: upper abdominal pain: 11%
  patients who experienced Serious AEs (SAE): Three
[2]; Part A Safety Population, 20 of 27
  patients who experienced a TEAE: 74%
[2]; Part A, Day 26, patient with type II diabetes
  only treatment related SAE: cellulitis (Grade 3)
[2]; Part A, number of AEs out of all AEs
  AEs that were Grade 1 or 2: 94/97
[3]
  disease symptoms and outcomes: improved disease symptoms and outcomes
[4]
  concentration at 12 h: 9.5 ng/mL
[5]
  patients who achieved CDA on no CS: Three
  patients who achieved CR at Week 21: one
  patients who achieved complete remission (CR) on 1 to 20 mg/day of CS: Four
[5]; 11 of 18 patients with efficacy data
  patients who met the primary endpoint CDA on CS <= 0.5 mg/kg/day by the Week 5 visit: 61%
[5]; 21 patients with pemphigus
  tolerability: well-tolerated
[5]; during PRN1008 treatment
  patients who required high-dose CS temporarily due to worsening of disease activity: Two
[5]; three patients
  patients who achieved CR at Week 13: 25%
[6]
  disease symptoms and outcomes: improved disease symptoms and outcomes
[7]
  Efficacy across subgroups: 43-64%
  additional patients who achieved CR at Week 13 without CS use: four
  patients who achieved CDA at or prior to the Week 5 visit without the use of CS: Three
  patients who did not require dose escalation to achieve response: 90%
  patients who needed dose escalation beyond the standard 400 mg bid: three
[7]; 400 mg BID (up to 600 mg BID), 2 weeks / study day 15, n = 26
  patients who achieved control of disease activity (CDA): 27%
[7]; 400 mg BID subgroup, 12 of 23
  CDA with low dose CS by Day 29, dosing subgroup: 52%
[7]; 500 mg BID subgroup, 1 of 1
  CDA with low dose CS by Day 29, dosing subgroup: 100%
[7]; 600 mg BID subgroup, 1 of 2
  CDA with low dose CS by Day 29, dosing subgroup: 50%
[7]; 4 weeks / Day 29, CS <= 0.5 mg/kg/day, n = 26 (primary endpoint), 0.5 mg/kg/day
  patients who achieved control of disease activity (CDA) with low dose CS: 54% and > 50%
[7]; 6 of 8
  CDA rate in newly diagnosed patients: 75%
[7]; 6 of 26
  patients who achieved CR during the study period: 23%
[7]; 12 weeks (treatment period), patients that completed the study
  patients who achieved complete remission (CR): 16.7% and 17%
[7]; 12 weeks / Day 85
  patients who achieved control of disease activity (CDA) with low dose CS: 73%
[7]; 13 of 18
  CDA rate in relapsing patients: 72%
[7]; 24 weeks (12 weeks on, 12 weeks off treatment; follow-up by Day 141)
  patients who achieved complete remission (CR): 25%
[7]; all of 11 patients with milder disease
  PDAI scores on the Day 85 visit: ≤ 5
[7]; all patients, SD = 10, baseline 14 mg/day (SD = 11)
  Mean CS dose after 12 weeks of treatment: 12 mg/day
[7]; dropped from 14 mg/day at baseline
  mean CS dose at CR: 8 mg/day
[7]; follow-up period
  additional patients who achieved CR on CS <= 0.5 mg/kg/day by Day 141: two
[7]; four patients of 26
  patients who achieved CR on CS doses <= 0.5 mg/kg/day by Day 85: 15%
[7]; in the 12 weeks off PRN1008
  patients who needed CS rescue > 0.5 mg/kg: 4 patients
[7]; over 12 weeks of treatment
  median reduction in PDAI scores: 70%
[7]; patients who achieved CR, range 1-20 mg
  mean CS dose at the time CR was achieved: 8 mg
[7]; post-treatment
  median CR duration: 96 days
[7]; post-treatment, range 0.7-20 mg/day
  mean CS dose during CR duration: 8 mg/day
[7]; slightly higher than overall mITT population
  CDA rate in patients with a positive anti-dsg 3 antibody: 64%
Patients with pemphigus
  tolerability: well tolerated
Patients with pemphigus; all treatment-related AEs
  severity of treatment-related AEs: mild-moderate and transient
Patients with pemphigus; mild to moderate (grade 1 and 2)
  Treatment-related AEs with an incidence greater than 10%: nausea, abdominal distension, infection, and oropharyngeal pain
Patients with pemphigus; of 15, grade 1 nasopharyngitis, grade 1 tracheitis
  patients who reported a mild related infection: 2 patients
[8]
  reproductive toxicity: not expected to harm fetal development or male fertility
[9]; 400 mg QD only, 2 weeks, n = 14 (FIG. 6)
  patients who achieved CDA: 29%
[9]; 400 mg QD only, 4 weeks, n = 14 (FIG. 6)
  patients who achieved CDA: 43%
[9]; 400 mg QD only, 4 weeks, n = 14 (FIG. 8B, 80% CI)
  patients who achieved CDA: 50%
[9]; 400 mg QD only, 12 weeks, n = 14 (FIG. 6)
  patients who achieved CDA: 50%
[9]; 400 mg QD only, 12 weeks, n = 14 (FIG. 8B, 80% CI)
  patients who achieved CDA: 50%
[9]; 400 mg QD only, 12 weeks, n = 14 (FIG. 9B)
  patients who achieved complete remission (CR): 7%
[9]; 400 mg QD only, 24 weeks, n = 14 (FIG. 9B)
  patients who achieved complete remission (CR): 7%
[9]; 400 mg QD only, 28 weeks (24 on, 4 off treatment), n = 14 (FIG. 9B)
  patients who achieved complete remission (CR): 7%
[9]; 400 mg QD with dose adjustment up to 600 mg BID, 2 weeks, n = 15 (FIG. 7)
  patients who achieved CDA: 27%
[9]; 400 mg QD with dose adjustment up to 600 mg BID, 4 weeks, n = 15 (FIG. 7)
  patients who achieved CDA: 53%
[9]; 400 mg QD with dose adjustment up to 600 mg BID, 12 weeks, n = 15 (FIG. 7)
  patients who achieved CDA: 80%
[9]; 24 weeks of PRN1008 treatment
  daily corticosteroid usage: decreased
[9]; at 12 weeks
  Median PDAI: 4
[9]; at 24 weeks, 10 out of 15
  patients having reached a PDAI of 1 or 0: 67%
[9]; at 24 weeks
  Median PDAI: 1
[9]; by 24 weeks
  reduction in mean PDAI activity score: 79%
  reduction in median PDAI activity score: 94%
[9]; dose adjustment up to 600 mg BID, 4 weeks, n = 15 (FIG. 8A, 80% CI)
  patients who achieved CDA: 60%
[9]; dose adjustment up to 600 mg BID, 12 weeks (FIG. 9A)
  patients who achieved complete remission (CR): 13%
[9]; dose adjustment up to 600 mg BID, 12 weeks, n = 15 (FIG. 8A, 80% CI)
  patients who achieved CDA: 87%
[9]; dose adjustment up to 600 mg BID, 24 weeks (FIG. 9A)
  patients who achieved complete remission (CR): 33%
[9]; dose adjustment up to 600 mg BID, 28 weeks (24 on, 4 off treatment) (FIG. 9A)
  patients who achieved complete remission (CR): 40%
[10]
  exposure of the tablet relative to the equal dose of the liquid formulation: ~ 70%
[11]
  median reduction of autoantibody levels: up to 65%
Healthy volunteers
  discontinuation due to an adverse event: no participants discontinued treatment due to an adverse event
  most commonly reported adverse events: gastrointestinal adverse events, including nausea/vomiting and diarrhea
  serious adverse events or deaths: No serious adverse events or deaths were reported

From patent publication US20230158033A1, “Method of Treating Pemphigus by Administering (R)-2-[3-[4-Amino-3-(2-Fluoro-4-Phenoxy-Phenyl)Pyrazolo[3,4-D]Pyrimidin-1-YL]Piperidine-1-Carbonyl]-4-Methyl-4-[4-(Oxetan-3-YL)Piperazin-1-YL]Pent-2-Enenitrile” (Principia Biopharma Inc., priority 2019, published 2023)
